System: glutathione transferase (GST-tSBO, identical to GST-mu)
Assay: Glutathione transferase activity of human liver cytosols (105,000 g supernatants) toward tauromustine and trans-stilbene oxide as substrates
Type: in vitro ADME
Experimental: Human liver biopsies from ? 3 individuals were homogenized in 5 vol. of 0.25 M sucrose, centrifuged at 10,000 g for 15 minutes and then the resulting supernatant was re-centrifuged at 105,000 g for one hour. The 105,000 g supernatants were analyzed for glutathione transferase activity using trans-stilbene oxide (tSBO) and tauromustine as substrates. Metabolism of these substrates to glutathione conjugates was monitored by radiometric procedures involving differential organic solvent extraction, see Gill, S., Ota, J. and Hammock, B. D. Anal. Biochem. 131: 273-282 (1983), and high pressure liquid chromatography (HPLC).

Structure (SMILES): CN(C)S(=O)(=O)CCNC(=O)N(CCCl)N=O [tauromustine]
- glutathione transferase activity toward tauromustine (human liver cytosols with GST-tSBO activity 0-10 nmo/min/mg protein (GST mu lacking)): 0-2 nmol/min/mg protein
- glutathione transferase activity toward tauromustine (metabolism of tauromustine) (human liver cytosols with easily detectable GST-tSBO activity, 25-65 nmol/min/mg protein (GST mu present)): 4-19 nmol/min/mg protein
- extent of metabolism by human liver cytosols having GST mu activity versus cytosols lacking GST mu activity (human liver cytosols, GST mu (+) vs (-)): metabolized to a much greater extent

From patent US5204241A, “Glutathione-S-transferase mu as a measure of drug resistance” (Oxi-Gene Inc., priority 1990, dated 1993)
